Assay results from patent US20260015592A1, “NEDDYLATION-ACTIVATING ENZYME INHIBITORS AS VIRAL SENSITIZERS AND USES THEREOF” (priority 2022, published 2026).

Test system: melanoma B16 tumors overexpressing OVA antigen (B16-OVA)
Settings: mouse, in vivo

Structure (SMILES): NS(=O)(=O)OC[C@@H]1C[C@H](n2ccc3c(N[C@H]4CCc5ccccc54)ncnc32)C[C@@H]1O [pevonedistat, ((1S,2S,4S)-4-(4-(((S)-2,3-dihydro-1H-inden-1-yl)amino)-7H-pyrrolo[2,3-d]pyrimidin-7-yl)-2-hydroxycyclopentyl) methyl sulfamate]
- survival: significantly prolonged survival
